For test [1], the target named is Tumour suppressor p53/oncoprotein Mdm2 (Homo sapiens, UniProt P04637+Q00987). Nature of the test: Binding affinity to human MDM2/p53. In kind it is protein assay.
Test [2] addresses T1, E3 ubiquitin-protein ligase Mdm2 (Homo sapiens, UniProt Q00987). Nature of the test: Antagonist activity at human MDM2.
Test [3] deals with T1, E3 ubiquitin-protein ligase Mdm2. Nature of the test: Antagonist activity at human GST-tagged MDM2 assessed as inhibition of binding to full length p53.

Drawing on ChEMBL document CHEMBL2380265, “Inhibitors of the p53/hdm2 protein-protein interaction-path to the clinic” (Bioorg Med Chem Lett, 2013), this text covers Kd and IC50 for 4 compounds.

Structures are written as SMILES. Where a SMILES comes first, the peptide text is derived from it. [ ]: non-standard residue; d: D form. Trp(6-Cl) = N[C@@H](Cc1c[nH]c2cc(Cl)ccc12)C(=O)O; Pmp = N[C@@H](Cc1ccc(CP(=O)(O)O)cc1)C(=O)O; Ac3c = NC1(C(=O)O)CC1; Aib = CC(C)(N)C(=O)O

T1 sequence (Q00987 whole entry): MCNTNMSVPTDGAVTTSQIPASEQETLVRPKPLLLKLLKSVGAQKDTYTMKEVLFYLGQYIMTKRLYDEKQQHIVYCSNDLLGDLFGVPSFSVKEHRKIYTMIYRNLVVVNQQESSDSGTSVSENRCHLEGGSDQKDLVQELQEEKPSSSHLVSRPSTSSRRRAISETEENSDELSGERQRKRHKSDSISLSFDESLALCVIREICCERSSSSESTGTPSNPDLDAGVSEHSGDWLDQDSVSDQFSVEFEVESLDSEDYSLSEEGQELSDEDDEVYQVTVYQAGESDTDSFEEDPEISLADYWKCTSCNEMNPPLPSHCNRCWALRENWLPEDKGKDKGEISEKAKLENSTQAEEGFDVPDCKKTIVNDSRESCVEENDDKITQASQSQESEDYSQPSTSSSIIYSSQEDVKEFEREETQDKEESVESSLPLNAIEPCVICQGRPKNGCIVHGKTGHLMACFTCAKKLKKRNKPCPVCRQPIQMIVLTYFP
Chain of Tumour suppressor p53/oncoprotein Mdm2 (P04637 whole entry): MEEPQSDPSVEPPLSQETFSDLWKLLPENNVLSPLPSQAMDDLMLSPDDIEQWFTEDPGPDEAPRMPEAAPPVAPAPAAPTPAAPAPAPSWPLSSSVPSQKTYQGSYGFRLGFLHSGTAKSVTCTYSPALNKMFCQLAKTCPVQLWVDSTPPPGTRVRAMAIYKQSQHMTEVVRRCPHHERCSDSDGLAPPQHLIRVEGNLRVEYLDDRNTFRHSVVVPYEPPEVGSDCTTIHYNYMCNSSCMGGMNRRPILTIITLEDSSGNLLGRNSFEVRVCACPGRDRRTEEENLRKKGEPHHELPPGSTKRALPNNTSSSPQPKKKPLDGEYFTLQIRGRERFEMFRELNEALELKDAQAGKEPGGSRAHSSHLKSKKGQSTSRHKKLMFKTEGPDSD
Chain of Tumour suppressor p53/oncoprotein Mdm2 (Q00987 whole entry): as the sequence (Q00987 whole entry) above

As for `CCOc1cc(C(C)(C)C)ccc1C1=N[C@@H](c2ccc(Cl)cc2)[C@@H](c2ccc(Cl)cc2)N1C(=O)N1CCN(CCCS(C)(=O)=O)CC1`, the Kd – broadly, the equilibrium constant for the complex coming apart – in test [1] came to 10.7 nM. This counts as double-digit nanomolar.

Consider `CSCC[C@H](NC(=O)[C@@H](N)Cc1ccccc1)C(=O)N[C@@H](CC(=O)O)C(=O)N[C@@H](Cc1ccc(O)cc1)C(=O)N[C@@H](Cc1c[nH]c2ccccc12)C(=O)N[C@@H](CCC(=O)O)C(=O)NCC(=O)N[C@@H](CC(C)C)C(N)=O` (H-FMDYWEGL-NH2), for which, in test [2], the IC50 (as a rule, the midpoint of a concentration-inhibition curve) is 8900 nM.

Regarding `CSCC[C@H](NC(=O)[C@H](Cc1ccccc1)NC(C)=O)C(=O)NC(C)(C)C(=O)N[C@@H](Cc1ccc(CP(=O)(O)O)cc1)C(=O)N[C@@H](Cc1c[nH]c2cc(Cl)ccc12)C(=O)N[C@@H](CCC(=O)O)C(=O)NC1(C(=O)N[C@@H](CC(C)C)C(N)=O)CC1` (Ac-FM[Aib][Pmp][Trp(6-Cl)]E[Ac3c]L-NH2), the IC50 in test [3] amounted to 5 nM.

Compound `CSCC[C@H](NC(=O)[C@H](Cc1ccccc1)NC(=O)[C@H](CCCN=C(N)N)NC(=O)[C@@H]1CCCN1C(=O)[C@H](CCSC)NC(C)=O)C(=O)N[C@@H](CC(=O)O)C(=O)N[C@@H](Cc1ccc(O)cc1)C(=O)N[C@@H](Cc1c[nH]c2ccccc12)C(=O)N[C@@H](CCC(=O)O)C(=O)NCC(=O)N[C@@H](CC(C)C)C(=O)N[C@@H](CC(N)=O)C(N)=O` (Ac-MPRFMDYWEGLN-NH2) yielded an IC50 in test [2] of 313 nM.
